Laboratory results as given in ChEMBL document CHEMBL4229459, “An efficient synthetic route for preparation of antimycobacterial wollamides and evaluation of their in vitro and in vivo efficacy” (Bioorg Med Chem Lett, 2018).
Residues, ends and D or L forms follow the SMILES beside them.

Test system: Mycobacterium tuberculosis
Assay: Antimycobacterial activity against Mycobacterium bovis BCG measured after 7 days
Assay type: functional, organism-based
Conditions: variant bovis BCG, 168 h

Row | Compound | IC50 [nM]
1 | CC[C@@H](C)[C@@H]1NC(=O)[C@@H](CC(C)C)NC(=O)[C@H](CC(C)C)NC(=O)[C@H](Cc2c[nH]c3ccccc23)NC(=O)[C@@H](CCCN)NC(=O)[C@H](CC(N)=O)NC1=O | 2800
2 | CC(C)C[C@@H]1NC(=O)[C@H](Cc2c[nH]c3ccccc23)NC(=O)[C@@H](CCCN)NC(=O)[C@H](CC(N)=O)NC(=O)[C@H](C(C)C)NC(=O)[C@@H](CC(C)C)NC1=O (HELM PEPTIDE1{[NCCC[C@@H](N[*:1])C(=O)[*:2]].W.L.[dL].V.N}$PEPTIDE1,PEPTIDE1,1:R1-6:R2$$$V2.0) | 3100
